# Several values for one entry are separate records, joined by “and”; a condition that tells them apart may be missing. Equal values may be shown once. Entries after “also recorded” stand apart in the source; their conditions may differ.
# Columns and labels:
# [1] = molecular target: T1, CTX-M-14 K234R β-lactamase (Escherichia coli, UniProt Q9L5C7, K237R); test: Steady-state kinetics of β-lactam hydrolysis, K234R enzyme; assay type: biochemical; conditions: for Km / kcat: 25 °C, pH 7.0
# T1 construct: His6 (TEV-cleavable) (N, cleaved yes); made in house; host or cells: E. coli BL21(DE3), pET28a-CTX-M-14 with K234R
# Protocol: (§1) Michaelis–Menten steady-state kinetic parameters of CTX-M-14 β-lactamases were determined on various β-lactam substrates. Wavelength and extinction coefficients used for detection were as follows: ampicillin, 235 nm, Δε = 900 M^−1 cm^−1; cephalothin, 262 nm, Δε = 7,660 M^−1 cm^−1; cefotaxime, 264 nm, Δε = 7,250 M^−1 cm^−1; nitrocefin, 482 nm, Δε = 15,000 M^−1 cm^−1; cefpodoxime, 235 nm, Δε = 1,023 M^−1 cm^−1; ceftriaxone, 241 nm, Δε = 2,046 M^−1 cm^−1. Enzymatic reactions were performed at 25 °C in buffer containing 50 mM sodium phosphate (pH 7.0) and 1 μg/ml BSA. Substrate hydrolysis was monitored by Beckman Coulter spectrophotometer model DU 800 (Beckman Coulter, Brea, CA, USA). Initial hydrolysis velocities of substrate were plotted as a function of concentrations and fitted into a Michaelis–Menten equation using GraphPad Prism 5 (GraphPad Software, San Diego, CA, USA) to obtain Km and kcat values. The kcat/Km values for the enzymes where kcat and Km could not be determined independently were estimated using the equation, ν = (kcat/Km)[E][S], where [S] ≪ Km ([54]).
# [2] = molecular target: T2, CTX-M-14 S130A β-lactamase (Escherichia coli, UniProt Q9L5C7, S133A); test: Steady-state kinetics of β-lactam hydrolysis, S130A enzyme; assay type: biochemical; conditions: for Km / kcat: S130A; for fold decrease in kcat / fold increase in Km: S130A compared with WT
# T2 construct: His6 (TEV-cleavable) (N, cleaved yes); made in house; host or cells: E. coli BL21(DE3)
# Protocol: as §1
# [3] = molecular target: T3, CTX-M-14 S130A/K234R β-lactamase (Escherichia coli, UniProt Q9L5C7, K237R/S133A); test: Steady-state kinetics of β-lactam hydrolysis, S130A/K234R enzyme; assay type: biochemical
# T3 construct: His6 (TEV-cleavable) (N, cleaved yes); made in house; host or cells: E. coli BL21(DE3)
# Protocol: as §1
# [4] = system: TEM-1 S130G β-lactamase; set-up: method as in PMID 15981999; conditions: cited from earlier work
# [5] = molecular target: T4, WT CTX-M-14 β-lactamase (Escherichia coli, UniProt Q9L5C7); test: Single-turnover stopped-flow kinetics, WT enzyme; assay type: biochemical
# T4 construct: His6 (TEV-cleavable) (N, cleaved yes); made in house; host or cells: E. coli BL21(DE3), plasmid pET28a-CTX-M-14
# Protocol: (§2) Single-turnover kinetics experiments were used to determine the acylation rate for the CTX-M-14 WT and K234R enzymes. Kinetic measurements were carried out at 25 °C using a using a KinTek stopped-flow instrument. Protein concentrations used in this experiment exceed the substrate concentrations. To prepare sample injection, 1 ml of increasing concentrations of CTX-M-14 proteins and 1 ml of 2.5–5 μM cefotaxime were loaded into two separate drive syringes. 5 μM cefotaxime was used for single-turnover experiments with WT CTX-M-14, whereas 2.5 μM cefotaxime was used in experiments with the K234R enzyme. Data collection times were adjusted empirically. Absorbance at 264 nm was monitored after samples in two syringes were mixed. For each selected time period, 1,000 data points were collected, and at least three kinetic traces were obtained to ensure high-quality data. Kinetic data with various protein concentrations were fitted to a single-exponential function, At=A^(−kt)+C , to determine kobs, which was then used to determine k2 by fitting kobs as a function of enzyme concentration to a hyperbola, as has been reported previously for serine β-lactamases and serine proteases ([33], [34], [35]). The deacylation rate constant, k3, was calculated from the experimental values determined for kcat and k2, using the equation, kcat = k2 × k3/(k2 + k3). Solving the equation for kcat in terms of k3 gives k3 = (k2 × kcat)/(kcat − k2). The error in the calculated value of k3 was determined by propagating the errors in k2 and kcat through the equation by adding the absolute errors for the sum (difference) in the denominator to obtain the absolute and the percentage error in kcat − k2. The percentage error of the numerator, (kcat × k2), was calculated by adding the percentage error for kcat and k2, and the final percentage and absolute errors on k3 were then obtained by adding the percentage error of the numerator and denominator to yield the percentage error in k3.
# [6] = molecular target: T1, CTX-M-14 K234R β-lactamase; test: Single-turnover stopped-flow kinetics, K234R enzyme; assay type: biochemical
# Protocol: as §2, with “Kinetic data with various protein concentrations were fitted to a single-exponential function, At=A^(−kt)+C , to determine kobs, which was then used to determine k2 by fitting kobs as a function of enzyme concentration to a hyperbola, as has been reported previously for serine β-lactamases and serine proteases ([33], [34], [35]).” left out, “Solving the equation for kcat in terms of k3 gives k3 = (k2 × kcat)/(kcat − k2).” left out, “The percentage error of the numerator, (kcat × k2), was calculated by adding the percentage error for kcat and k2, and the final percentage and absolute errors on k3 were then obtained by adding the percentage error of the numerator and denominator to yield the percentage error in k3.” left out
# [7] = system: CTX-M β-lactamases; conditions: CTX-M versus TEM-1; cited from earlier work
# [8] = system: PSE-4 β-lactamase; set-up: method as in PMID 11148033, PMID 9756758; conditions: WT PSE-4; cited from earlier work
# [9] = molecular target: T4, WT CTX-M-14 β-lactamase; test: Clavulanic acid inhibition (Ki, Morrison fit), WT enzyme; assay type: biochemical; conditions: ampicillin (100 μM) as indicator substrate, 20 min preincubation
# Protocol: (§3) The Ki values for clavulanic acid inhibition of CTX-M-14 WT and variants were determined by mixing the enzymes with increasing concentrations of clavulanic acid in buffer containing 50 mM sodium phosphate (pH 7.0) and 1 μg/ml BSA and incubating at room temperature for 20 min. Enzyme activity was evaluated by monitoring the initial velocity of hydrolysis of 100 μM ampicillin using Beckman Coulter spectrophotometer model DU 800. The percentage activity was calculated by dividing the initial hydrolysis velocity for ampicillin in the presence of clavulanic acid by the velocity in the absence of clavulanic acid and plotted as a function of clavulanic acid concentration. The Ki values were obtained by fitting the data into Morrison equation using GraphPad Prism 5 ([55]).
# [10] = molecular target: T1, CTX-M-14 K234R β-lactamase; test: Clavulanic acid inhibition (Ki, Morrison fit), K234R enzyme; assay type: biochemical; conditions: ampicillin as indicator substrate, 20 min preincubation
# Protocol: as §3
# [11] = molecular target: T2, CTX-M-14 S130A β-lactamase; test: Clavulanic acid inhibition (Ki, Morrison fit), S130A enzyme; assay type: biochemical; conditions: ampicillin as indicator substrate, 20 min preincubation
# Protocol: as §3
# [12] = molecular target: T3, CTX-M-14 S130A/K234R β-lactamase; test: Clavulanic acid inhibition (Ki, Morrison fit), S130A/K234R enzyme; assay type: biochemical
# Protocol: as §3
# [13] = system: TEM-1 β-lactamase K234T; set-up: method as in PMID 1910040; conditions: TEM-1 K234T versus TEM-1; cited from earlier work
# [14] = molecular target: T4, WT CTX-M-14 β-lactamase; test: Steady-state kinetics of β-lactam hydrolysis, WT enzyme; assay type: biochemical
# Protocol: as §1
# [15] = system: CC1(C)S[C@@H]2[C@H](NC(=O)[C@H](N)c3ccccc3)C(=O)N2[C@H]1C(=O)O; test: as above; assay type: biochemical; conditions: other: WT CTX-M-14, 25 °C, pH 7.0
# Protocol: as §1
# [16] = system: CO/N=C(\C(=O)N[C@@H]1C(=O)N2C(C(=O)O)=C(COC(C)=O)CS[C@H]12)c1csc(N)n1; test: as above; assay type: biochemical; conditions: other: WT CTX-M-14, 25 °C, pH 7.0
# Protocol: as §1
molecule,measurement,setting,value
"CC1(C)S[C@@H]2[C@H](NC(=O)[C@H](N)c3ccccc3)C(=O)N2[C@H]1C(=O)O [Ampicillin, ampicillin]","change in kcat/Km (catalytic efficiency), in words",[1]; K234R compared with WT,unchanged; also recorded: only modestly changed
same,fold increase in Km,[1]; K234R compared with WT,9 fold
same,fold increase in kcat,[1]; K234R compared with WT,5 fold
same,fold increase in acylation rate,"[1]; K234R compared with WT, inferred from kcat",at least 5 fold
same,Km,[1]; K234R,1050 µM
same,kcat,[1]; K234R,330 ± 33 s⁻¹
same,kcat,"[1]; K234R, listed as ampicillin",330 s⁻¹
same,"k2 (acylation rate), lower limit based on kcat","[1]; K234R, inferred from kcat",≥ 330 s⁻¹
same,"k3 (deacylation rate), lower limit based on kcat","[1]; K234R, inferred from kcat",≥ 330 s⁻¹
same,Km,[2],30000 µM
same,fold decrease in kcat,[2],2 fold
same,fold increase in Km,[2],260 fold
same,Km,"[2]; 25 °C, pH 7.0",30700 µM
same,kcat,"[2]; 25 °C, pH 7.0",30 ± 2 s⁻¹
same,Km,"[3]; S130A/K234R, too high to measure",> 30000 µM
same,fold reduction in hydrolysis,[4],10 fold
"CO/N=C(\C(=O)N[C@@H]1C(=O)N2C(C(=O)O)=C(COC(C)=O)CS[C@H]12)c1csc(N)n1 [Cefotaxime, cefotaxime]",fold decrease in Km,[1]; K234R compared with WT,6 fold
same,fold decrease in kcat,[1]; K234R compared with WT,500 fold
same,fold decrease in kcat/Km,[1]; K234R compared with WT,80 fold
same,Km,[1]; K234R,11 ± 4 µM
same,kcat,[1]; K234R,0.2 ± 0.01 s⁻¹
same,kcat,"[1]; K234R, listed as cefotaxime",0.2 s⁻¹
same,"k3 (deacylation rate), lower limit based on kcat","[1]; K234R, inferred from kcat",≥ 0.2 s⁻¹
same,fold decrease in kcat,[2],"1,000 fold"
same,fold increase in Km,[2],4 fold
same,Km,"[2]; 25 °C, pH 7.0",260 ± 13 µM
same,kcat,"[2]; 25 °C, pH 7.0",0.1 ± 0.003 s⁻¹
same,fold reduction in kcat,[3]; S130A/K234R compared with K234R,400 fold
same,fold reduction in kcat,[3]; S130A/K234R compared with S130A,200 fold
same,Km,"[3]; S130A/K234R, 25 °C, pH 7.0",120 ± 17 µM
same,kcat,"[3]; S130A/K234R, 25 °C, pH 7.0",0.0005 ± 0.0001 s⁻¹
same,k3 (deacylation rate),[5]; calculated from k2 and kcat,190 s^−1 and 190 ± 35 ^b s^−1
same,Kd,"[5]; fit of kobs from single turnover, read-out: KD (Ks, dissociation constant)",74 ± 12 µM
same,k2 (acylation rate),"[5]; single turnover, 5 μM cefotaxime, 25 °C",210 s⁻¹ and 210 ± 12 s⁻¹
same,Kd,[6]; fit of kobs from single turnover,42 ± 8 µM
same,k2 (acylation rate),"[6]; single turnover, 2.5 μM cefotaxime, 25 °C",0.14 s⁻¹ and 0.14 ± 0.01 s⁻¹
same,"hydrolysis, fold faster than TEM-1",[7],"~1,000 fold"
same,"kcat, fold lower than for ampicillin hydrolysis",[8],"~2,000 fold"
"O=C(O)[C@H]1/C(=C/CO)O[C@@H]2CC(=O)N21 [Clav acid, Clavulanic acid]",Ki,[9],0.08 ± 0.001 µM
same,Ki,[10],0.39 ± 0.02 µM
same,Ki,[11],30 µM and 31 µM
same,"Ki, fold above WT",[12]; S130A/K234R compared with WT,"3,500 fold"
same,Ki,"[12]; S130A/K234R, ampicillin as indicator substrate, 20 min preincubation",270 ± 20 µM
CC1(C)S[C@@H]2[C@H](NC(=O)Cc3ccccc3)C(=O)N2[C@H]1C(=O)O [benzylpenicillin],fold increase in Km,[13],50 fold
same,fold reduction in kcat,[13],~50 fold
COCC1=C(C(=O)O)N2C(=O)[C@@H](NC(=O)/C(=N\OC)c3csc(N)n3)[C@H]2SC1 [cefpodoxime],fold decrease in Km,[1]; K234R compared with WT,9 fold
same,fold decrease in kcat,[1]; K234R compared with WT,430 fold
same,fold decrease in kcat/Km,[1]; K234R compared with WT,50 fold
CO/N=C(\C(=O)N[C@@H]1C(=O)N2C(C(=O)O)=CCS[C@H]12)c1csc(N)n1 [ceftizoxime],"Km, fold higher than for cefotaxime",[14],45 fold
same,"kcat, fold higher than for cefotaxime",[14],2 fold
same,"kcat/Km, fold lower than for cefotaxime",[14],20 fold
same,fold decrease in Km,[1]; K234R compared with WT,8 fold
same,fold decrease in kcat,[1]; K234R compared with WT,320 fold
same,fold decrease in kcat/Km,[1]; K234R compared with WT,40 fold
CO/N=C(\C(=O)N[C@@H]1C(=O)N2C(C(=O)O)=C(CSc3nc(=O)c(=O)[nH]n3C)CS[C@H]12)c1csc(N)n1 [ceftriaxone],fold decrease in Km,[1]; K234R compared with WT,2 fold
same,fold decrease in kcat,[1]; K234R compared with WT,400 fold
same,fold decrease in kcat/Km,[1]; K234R compared with WT,170 fold
CC(=O)OCC1=C(C(=O)O)N2C(=O)[C@@H](NC(=O)Cc3cccs3)[C@H]2SC1 [cephalothin],"kcat, fold higher than for cefotaxime",[14],~7 fold
same,"kcat/Km, fold higher than for cefotaxime",[14],~3 fold
same,fold decrease in Km,[1]; K234R compared with WT,20 fold
same,fold decrease in kcat,[1]; K234R compared with WT,100 fold
same,fold decrease in kcat/Km,[1]; K234R compared with WT,6 fold
WT CTX-M-14 β-lactamase (Escherichia coli),Km,[15],120 ± 10 µM
same,kcat,[15],67 ± 3 s⁻¹
same,kcat/Km,[15],560000 ± 20000 M⁻¹ s⁻¹
same,Km,[16],66 ± 3 µM
same,kcat,[16],100 ± 1 s⁻¹
same,kcat/Km,[16],1.5e+06 ± 100000 M⁻¹ s⁻¹
